In patent publication US6949250B2, “Selective algaecides for control of cyanochloronta” (The United States of America as represented by the …, priority 2002, dated 2005):

What was measured:
Format in all cases: in vivo
2-methylisoborneol = experiment: DNA1-19-1 first pond efficacy study (limnocorrals): MIB levels; conditions: 2 μM
Oscillatoria perornata = experiment: DNA2-59-1 third pond efficacy study: O. perornata abundance; conditions: 0.3 μM, within 24 hours after application
Method: (§1) The method described by Schrader et al. (2000) was used to determine the potential for using the anthraquinone derivatives as selective algicides in catfish aquaculture ponds. All catfish ponds used in efficacy tests were maintained using commercial pond management practices and were located at the Thad Cochran Pond Facility, Mississippi State University, Stoneville, Miss. Anthraquinone analogs were dissolved in deionized water before application to water within the limnocorrals.
(§2) Limnocorrals in which test compound was applied to the enclosed water were randomly selected, and control (no test compound applied) limnocorrals were included in each efficacy study. For each sampling, two water samples (250 mL) were obtained from within each limnocorral (approximately 6-8 cm below the water surface and from opposite sides of each limnocorral) and mixed together in a 500 mL sample bottle to provide a representative sample of the water contained within the limnocorral.
(§3) For the third efficacy test with DNA2-59-1, twelve limnocorrals (2.44 m in diameter and 1.53 m high) were placed in a 4-ha earthen pond containing a bloom of O. perornata. […]

Oscillatoria geminata [1] = experiment: DNA2-59-1 third pond efficacy study: Oscillatoria geminata abundance; conditions: 0.3 μM, from two days through four days after application
Method: as §1, §2, §3

chlorophyll a [2] = experiment: DNA2-59-1 second pond efficacy study: chlorophyll a; conditions: 0.3 μM, for three days after application
Method: as §1, §2
(§4) In the second efficacy test with DNA2-59-1, six limnocorrals (1.53 m in diameter and 1.53 m high) were placed in a 0.1-ha earthen pond containing a heavy bloom of O. perornata. The same delay in mixing the water within the limnocorrals used in the first efficacy study was utilized. Water within three randomly selected limnocorrals received an application rate of 0.3 μM DNA2-59-1, and the other three limnocorrals were controls. […]

green algae [3] = experiment: DNA2-59-1 third pond efficacy study: green algae abundance; conditions: 0.3 μM, from three days after application
Method: as §1, §2, §3

Oscillatoria agardhii [4] = experiment: DNA2-59-1 third pond efficacy study: Oscillatoria agardhii abundance; conditions: 0.3 μM
Method: as §1, §2, §3

Oscillatoria agardhii [5] = experiment: DNA2-59-1 second pond efficacy study: Oscillatoria agardhii abundance; conditions: 0.3 μM
Method: as §1, §2, §4

diatoms = experiment: DNA2-59-1 third pond efficacy study: diatom abundance; conditions: 0.3 μM, from three days after application
Method: as §1, §2, §3

chlorophyll a [6] = experiment: DNA2-59-1 first pond efficacy study: chlorophyll a
Method: as §1
(§5) Limnocorrals in which test compound was applied to the enclosed water were randomly selected, and control (no test compound applied) limnocorrals were included in each efficacy study. […]
(§6) In the first study, application rates of 0.1 μM (37.7 μg/L), 0.3 μM ([…]), and 1.0 μM (377 μg/L) of DNA2-59-1 were tested using limnocorrals (three replicates per concentration) that were of the same type used for testing DNA1-19-1. […] Water samples were also analyzed to determine the persistence of DNA2-59-1 in the pond water, and this analysis was performed by using high-pressure liquid chromatography (HPLC) (method and results are described later).

Anabaena circinalis = experiment: DNA2-59-1 first pond efficacy study: Anabaena circinalis abundance
Method: as §1, §5, §6

green algae [7] = experiment: DNA2-59-1 first pond efficacy study: green algae abundance; conditions: first study, 0.1, 0.3 and 1 μM
Method: as §1, §5, §6

Oscillatoria geminata [8] = experiment: DNA2-59-1 second pond efficacy study: Oscillatoria geminata abundance; conditions: 0.3 μM
Method: as §1, §2, §4

CCN(CC)CCCC(C)NCc1ccc2c(c1)C(=O)c1ccccc1C2=O.O=P(O)(O)O.O=P(O)(O)O (stereo not shown) [DNA1-19-1, 2-[methylamino-N-(1′-methyl-4′-N,N-diethylaminobutyl)]-9,10-anthraquinone diphosphate]
Levels of MIB after reduction (2-methylisoborneol): ~970 ng/mL | time MIB levels remained much lower than in the controls (2-methylisoborneol): 8 days | Levels of MIB before reduction (2-methylisoborneol; ng/mL (ppb)): 15,250 ng/mL

CC(C)NCc1ccc2c(c1)C(=O)c1ccccc1C2=O [DNA2-59-1, 2-[methylamino-N-(1′-methylethyl)]-9,10-anthraquinone monophosphate]
Numbers of O. perornata (result in words) (Oscillatoria perornata): significantly reduced | abundance of Oscillatoria geminate vs controls (result in words) (Oscillatoria geminata [1]): significantly lower than controls | Chlorophyll a levels (result in words) (chlorophyll a [2]): significantly lower | Numbers of green algae vs control limnocorrals (result in words) (green algae [3]): significantly higher | Numbers of Oscillatoria agardhii (result in words) (Oscillatoria agardhii [4]): significantly reduced | Numbers of Oscillatoria agardhii (result in words) (Oscillatoria agardhii [5]): not affected | Numbers of diatoms vs control limnocorrals (result in words) (diatoms): significantly higher | Chlorophyll a levels significantly reduced compared to controls (result in words) (chlorophyll a [6]; 0.1 μM): not | chlorophyll a levels compared to controls (result in words) (chlorophyll a [6]; 1 and 0.3 μM): significantly reduced | Numbers of Anabaena circinalis compared to controls (result in words) (Anabaena circinalis; 1 μM): significantly reduced | filaments of A. circinalis present (result in words) (Anabaena circinalis; 16 hours after application of 1 μM): no filaments of A. circinalis were observed to be present | Numbers of green algae compared to controls (result in words) (green algae [7]): not significantly affected | Numbers of Oscillatoria geminata (result in words) (Oscillatoria geminata [8]): reduced by application of 0.3 μM DNA2-59-1, though not significantly
